From patent publication US20090163481A1, “PPAR-DELTA LIGANDS AND METHODS OF THEIR USE” (priority 2007, published 2009) come the findings set out here.

A word on the IC50: it is the point on the concentration scale where inhibition reaches its midpoint.

For one experiment, the system named is MMP-9. Nature of the experiment: Gelatin zymogel analysis of MMP-9 activity in PC-3 cells. It counts as cell-based, human. The settings on record: PC-3, 16 h; VLDL 2 μg/ml + LPL 2 μg/ml and/or 10 μM SR13904. How it is done:
Zymogel studies were performed to determine whether PPARδ could regulate MMP-9 expression/activity in prostate cancer cells. Over-expression of MMP-9 is directly linked to metastatic prostate cancer, at least in part through mitogen/extracellular-signal-regulated kinase kinase 5/extracellular signal-regulated kinase-5 (MEK5/ERK5). An increase in MMP-9 activity in VLDL-treated PC-3 cells was observed (see FIG. 7), and this activation was attenuated by co-incubation with SR 13904.
Referring to FIG. 7, PC-3 cultures were treated with ligands (2 μg/ml VLDL+2 μg/ml LPL and/or 10 μM SR13904) for 16 h prior to harvesting of cells (for cell counting) and collection and concentration of conditioned media. Loading was based on equal cell numbers, corresponding closely to equal loading volumes.

Experiment [1] concerns PC-3 cells. Nature of the experiment: Western analysis of cyclin D1 and CDK2 in post-confluent PC-3 cells. It counts as cell-based, human. The settings on record: post-confluent PC-3, 48 h, SR 13904 10 μM, vehicle- and VLDL-treated cells. How it is done: Referring to FIG. 4, PC-3 cells were brought to confluence and cultured in serum-free OptiMem culture medium (Gibco) 2 h before treatment with a combination of VLDL (2 μg/ml+2 μg/ml LPL) and/or SR 13904 (10 μM) and incubated for an additional 48 h. Standard Western blotting was performed. Glyceraldehyde 3 phosphate dehydrogenase (GAPDH) was used a control for both blots.

The test system of a further experiment is Huh7. Nature of the experiment: Alamar Blue proliferation assay, Huh7. The experiment is classed as cell-based. The settings on record: Homo sapiens, Huh-7, 96 h; Huh7, 0-40 μM, 0.5% serum, 4 days; read-out: IC50 for growth inhibition. The procedure:
(§1) The effect of SR13904 on the proliferation of these cell lines was determined by an Alamar Blue assay. Exponentially growing cells were treated with a range of SR13904 concentrations (0-40 μM; in 0.5% serum) over 4 days and proliferation curves were determined. The IC50 values for growth inhibition by SR13904 for each cell line were determined. […] In addition, colony formation assays with SR13904 were performed with both A549 and Huh7 cells.
A general note: Alamar Blue is a resazurin reagent that responds to reducing activity.

Experiment [2] deals with PC-3 cells. Nature of the experiment: Alamar Blue proliferation assay, PC-3. It counts as cell-based. The following applies: Homo sapiens, 96 h; PC-3, 0-40 μM, 0.5% serum, 4 days; read-out: IC50 for growth inhibition. How it is done: as §1
A further experiment relates to A549. Nature of the experiment: Alamar Blue proliferation assay, A549. It counts as cell-based. The settings on record: Homo sapiens, 96 h; A549, 0-40 μM, 0.5% serum, 4 days; read-out: IC50 for growth inhibition. The procedure: as §1
Another experiment relates to A549 cultures. The experiment is described as follows: Real time PCR mRNA analysis of CDK2, CDK4, cyclin D1 in A549. It counts as cell-based, human. The settings on record: A549, 20 μM, 0.5% FBS, 24 and 48 h. The procedure:
Referring now to FIG. 5D, to better define the level of regulation of SR13904 on cell cycle proteins, CDK2, CDK4, and cyclin D1 were selected for mRNA analysis using real time PCR. A549 cultures were treated with SR13904 (20 μM; 0.5% FBS) and sampled at 24- and 48-h time-points. […] For CDK2 the differences (SR13904-treated vs. vehicle control-treated) were significant (*p=0.01-0.05, **p=0.00-0.01). Computational analysis of the proximal human CDK2 promoter identified a number of putative consensus PPREs. None were found within the proximal promoter regions of the CDK4 and cyclin D1 genes. SR13904 may directly affect the transcriptional activity of CDK2 while exerting indirect effects on the expression of the CDK4 and cyclin D1 proteins, perhaps through control over PPARδ-dependent signaling pathways.
In general terms: Real-time PCR tracks product formation cycle by cycle.

A further experiment concerns the target T1, LBD of PPARδ protein (Homo sapiens, UniProt Q03181).
T1 construct: co-transfection of a plasmid containing an LBD/Gal4 fusion construct; expressed in transfected cells; host or cells: U2-OS (human bone cancer line)
T1 sequence (Q03181 211-439 limits assumed): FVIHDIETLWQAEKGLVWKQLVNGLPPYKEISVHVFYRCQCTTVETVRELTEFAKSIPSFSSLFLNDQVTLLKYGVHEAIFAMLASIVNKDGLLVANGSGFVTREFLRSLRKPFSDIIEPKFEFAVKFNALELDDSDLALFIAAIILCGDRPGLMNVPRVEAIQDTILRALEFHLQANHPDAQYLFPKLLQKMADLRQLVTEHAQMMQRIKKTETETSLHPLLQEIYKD
The experiment is described as follows: PPARδ ligand-binding domain (LBD)/Gal4 UAS-tk-luciferase reporter assay in U2-OS cells. The experiment is classed as cell-based. The procedure:
General Testing Procedures. Each ligand was screened for PPARδ binding and transactivation activity through the use of two complementary reporter assays as described below. In both systems, transfection efficiency was standardized by co-transfection of a control Renilla luciferase. U2-OS (human bone cancer line) cells were used for both assays because this is the cell line of choice for screening PPAR ligands. At 18 h post-transfection, GW 501, with and without the ligands of the disclosure, was added to the cells and incubated for an additional 24 h. The cells were then harvested and luciferase activities profiled.
A PPARδ protein ligand-binding domain (LBD) assay. The LBD assay consists of cellular co-transfection of a plasmid containing an LBD/Gal4 fusion construct and a vector containing a UAS-tk-luciferase reporter construct under the transcriptional control of a Gal4 upstream activating sequence. This system was used to test for binding activities of candidate PPARδ ligands to the LBD of PPARδ protein.
Referring to FIG. 3, U2-OS cells were transiently transfected with appropriate expression and reporter vectors. Ligands were added to the cell cultures 24 h post-transfection and incubated for an additional 16 h. Lipoprotein lipase (LPL; 2 μg/ml) was added with VLDL (5 μg/ml) to release PPARδ-active triglycerides. FIG. 3A: PPARδ LBD/Gal4/UAS-tk-luc competition assays with VLDL SR13904 (0-10 μM). The reporter activation (fold increase over blank) is presented relative to GW501516 at 7 nM (fold increase over blank=100). FIG. 3B: PPRE reporter assays using 0, 1, and 10 μM SR13904+VLDL. All assays were repeated in triplicate.

Consider `Cc1cc(SCc2sc(-c3cccc4ccccc34)nc2C)ccc1OCC(=O)O` [SR 13904], for which the MMP-9 activity entry in the experiment with MMP-9 was “attenuated”. Moreover, in the experiment with PC-3 cells [1] (VLDL 2 μg/ml + LPL 2 μg/ml), the CDK2 protein levels entry is recorded as “decreased”. In addition, the “cyclin D1 protein levels” value in the experiment with PC-3 cells [1] is reported as “decreased”. Further, the values for the IC50 with Huh7, with PC-3 cells [2] and in the experiment on A549 were 8 to 10 µM, above 30 µM and 8 to 10 µM, respectively. Besides, the “CDK4 or cyclin D1 mRNA levels” value in the experiment with A549 cultures is “no effect”. In addition, in the experiment with A549 cultures, the “steady state levels of CDK2 mRNA” value is on record as “significantly reduced”. Further, the “inhibition of binding of VLDL to PPARδ” value on LBD of PPARδ protein (SR13904 0-10 μM with VLDL) is given as “significantly inhibit”. Further, the “concentrations at which ligand binds LBD of PPARδ, attenuating LBD binding of GW501” value at LBD of PPARδ protein (competition with GW501 (7 nM), U2-OS cells) is 1 to 10 µM. In addition, the “PPARδ ligand profile (agonist/antagonist)” value at LBD of PPARδ protein (from GAL-4 binding and PPRE transactivation reporter screens) is on record as “PPARδ antagonist”.
